Holding throughout (type): cell-based
For one experiment, the target named is T1, EGFR WT (Ba/F3 cells) (Homo sapiens, UniProt P00533).
T1 construct: expressed in transfected cells; host or cells: Ba/F3 (murine pro-B cells), retroviral transduction, puromycin selection, maintained with EGF
In words: Inhibitor activity on EGFR-dependent cell growth (CellTiter-Glo, 72 h), Ba/F3 EGFR WT. The note with it: read-out: BaF3 WT IC50. The method in brief:
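This growth assay used Ba/F3 cells that depend on wild-type EGFR and are kept in EGF without IL3. Compounds were made up as 10 mM DMSO stocks and diluted 3-fold over 10 points. 120 nL went onto 600 cells/well. After 72 hours, 40 μL CellTiter-Glo was added and luminescence read on EnVision after 30 min.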

The target in experiment [1] is T2, EGFR exon 20 NPG Ins D770_N771 (Ba/F3 cells) (Homo sapiens, UniProt P00533, INS770NPG).
T2 construct: expressed in transfected cells; host or cells: Ba/F3 (murine pro-B cells), retroviral transduction, puromycin selection, IL3-independent pool
The experiment is described as follows: Inhibitor activity on EGFR-dependent cell growth (CellTiter-Glo, 72 h), Ba/F3 EGFR exon 20 NPG Ins. The note with it: read-out: BaF3 NPG IC50. The method in brief:
(§1)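 IC50s derive from a sigmoidal dose–response fit of CellTiter-Glo signal. The signal was normalised between […]-treated cells and cell-free medium. Ba/F3 mutant-EGFR cells, seeded at 400–800/well depending on the line, had 72 h of exposure to a 10-point, 3-fold compound series.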
A general note: ATP-based viability assays read luminescence as a measure of living cells.

Experiment [2] has as its target T3, EGFR exon 20 ASV Ins V769_D770 (Ba/F3 cells) (Homo sapiens, UniProt P00533, INS769ASV).
T3 construct: expressed in transfected cells; host or cells: Ba/F3 (murine pro-B cells), retroviral transduction, puromycin selection, IL3-independent pool
The experiment is described as follows: Inhibitor activity on EGFR-dependent cell growth (CellTiter-Glo, 72 h), Ba/F3 EGFR exon 20 ASV Ins. The note with it: read-out: BaF3 ASV IC50. The method in brief: as §1

Experiment [3] has as its target T4, EGFR exon 20 SVD Ins D770_N771 (Ba/F3 cells) (Homo sapiens, UniProt P00533, INS770SVD).
T4 construct: expressed in transfected cells; host or cells: Ba/F3 (murine pro-B cells), retroviral transduction, puromycin selection, IL3-independent pool
In words: Inhibitor activity on EGFR-dependent cell growth (CellTiter-Glo, 72 h), Ba/F3 EGFR exon 20 SVD Ins. The note with it: read-out: BaF3 SVD IC50. An outline of the steps:
as §1

Experiment [4] concerns the target T5, EGFR exon 20 FQEA Ins A763_V764 (Ba/F3 cells) (Homo sapiens, UniProt P00533, INS763FQEA).
T5 construct: expressed in transfected cells; host or cells: Ba/F3 (murine pro-B cells), retroviral transduction, puromycin selection, IL3-independent pool
In words: Inhibitor activity on EGFR-dependent cell growth (CellTiter-Glo, 72 h), Ba/F3 EGFR exon 20 FQEA Ins. The note with it: read-out: BaF3 FQEA IC50. An outline of the steps:
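Ba/F3 cells engineered with each EGFR variant were plated (400, 600 or 800 per well for L858R, L858R/C797S, and exon 19del/FQEA). They were exposed for 72 hours to compound serially diluted from a 10 mM DMSO stock. Remaining viable cells were quantified by CellTiter-Glo, and IC50 was curve-fitted.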

The target in experiment [5] is T2, EGFR exon 20 NPG Ins D770_N771 (Ba/F3 cells). In words: Inhibitor activity on EGFR phosphorylation (pEGFR AlphaLISA, 2 h), Ba/F3 EGFR exon 20 NPG Ins. From the text:
Example B. Inhibitor Activity on EGFR phosphorylation (pEGFR)
EGFR mutant Ba/F3 cells were generated by transduction with retrovirus containing vectors expressing EGFR L858R, EGFR exon 19del, EGFR L858R/C797S, EGFR exon 20 NPG Ins D770_N771, EGFR exon 20 ASV Ins V769_D770, or EGFR exon 20 SVD Ins D770_N771 genes along with a puromycin selection marker. Transduced cells are selected with puromycin for 7 days and are then be transferred into culture media without Interleukin 3 (IL3). Surviving cells are confirmed to express EGFR by Western blot and maintained as a pool. CUTO14 cells were obtained from Dr. Robert C. Doebele at the University of Colorado. The IC50 date are included in Table 6 and Table 7.
1.1 Cells are harvested from flask into cell culture medium and the cell number counted.
1.2 Cells are diluted with culture medium to the desired density and 40 μL of cell suspension is added into each well of 384-well cell culture plate and the seeding density is 50K cells/well (Ba/F3) or 12.5K cells/well (CUTO14).
2 Compound Preparation and Treatment
2.1 Test compounds are dissolved to 10 mM in a DMSO stock solution. 45 μL of stock solution is transferred to a 384 polypropylene plate (pp-plate). Perform 3-fold, 10-point dilution via transferring 15 μL compound into 30 μL DMSO using a TECAN (EVO200) liquid handler.
2.2 Spin plates at room temperature at 1,000 RPM for 1 minute.
2.3 Transfer 5 nL of diluted compound from compound source plate into the cell plate.
2.4 After compound treatment for 2 hours, perform pEGFR detection by AlphaLISA for compound treatment plates as described in “Detection” section.
3 Detection by pEGFR AlphaLISA (Perkin-Elmer)
3.1 Plates are removed from incubators and equilibrated at room temperature for 10 minutes, and media was removed
3.2 10 μL of lysis buffer is added and plates shaken at 600 rpm for 1 hr.
3.3 Prepare acceptor mix just before use and dispense 5 μL of acceptor mix to all the wells. Shake 350 rpm for Ihr in the dark
3.4 Prepare donor mix under low light conditions prior to use. Dispense 5 μL of donor mix to all the wells. Mix well on the shaker, seal and wrap in aluminum foil and incubate 1.5 hrs at room temperature in the dark
3.5 Transfer 18.5 μL mixture to OptiPlate 384, and read using an Envision. The IC50 date were included in Table 6 and Table 7.
Background: In Alpha technology, singlet oxygen from a donor bead excites a nearby acceptor bead.

Experiment [6] deals with T3, EGFR exon 20 ASV Ins V769_D770 (Ba/F3 cells). In words: Inhibitor activity on EGFR phosphorylation (pEGFR AlphaLISA, 2 h), Ba/F3 EGFR exon 20 ASV Ins. The note with it: EGFR phosphorylation, AlphaLISA, 2 hours; read-out: ASV IC50 (pEGFR). An outline of the steps:
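Ba/F3 cells made IL3-independent by retroviral EGFR mutant expression (puromycin-selected, pooled) and CUTO14 cells were seeded at 50K or 12.5K cells/well, respectively. They were treated 2 h with a 3-fold, 10-point compound series, lysed, and phospho-EGFR was read by AlphaLISA to give IC50.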

From patent US20240101576A1, “HETEROCYCLIC INHIBITORS OF EGFR AND/OR HER2, FOR USE IN THE TREATMENT OF CANCER” (Scorpion Therapeutics, Inc., priority 2020, published 2024) come the findings set out here.

T1 sequence (P00533 25-1210): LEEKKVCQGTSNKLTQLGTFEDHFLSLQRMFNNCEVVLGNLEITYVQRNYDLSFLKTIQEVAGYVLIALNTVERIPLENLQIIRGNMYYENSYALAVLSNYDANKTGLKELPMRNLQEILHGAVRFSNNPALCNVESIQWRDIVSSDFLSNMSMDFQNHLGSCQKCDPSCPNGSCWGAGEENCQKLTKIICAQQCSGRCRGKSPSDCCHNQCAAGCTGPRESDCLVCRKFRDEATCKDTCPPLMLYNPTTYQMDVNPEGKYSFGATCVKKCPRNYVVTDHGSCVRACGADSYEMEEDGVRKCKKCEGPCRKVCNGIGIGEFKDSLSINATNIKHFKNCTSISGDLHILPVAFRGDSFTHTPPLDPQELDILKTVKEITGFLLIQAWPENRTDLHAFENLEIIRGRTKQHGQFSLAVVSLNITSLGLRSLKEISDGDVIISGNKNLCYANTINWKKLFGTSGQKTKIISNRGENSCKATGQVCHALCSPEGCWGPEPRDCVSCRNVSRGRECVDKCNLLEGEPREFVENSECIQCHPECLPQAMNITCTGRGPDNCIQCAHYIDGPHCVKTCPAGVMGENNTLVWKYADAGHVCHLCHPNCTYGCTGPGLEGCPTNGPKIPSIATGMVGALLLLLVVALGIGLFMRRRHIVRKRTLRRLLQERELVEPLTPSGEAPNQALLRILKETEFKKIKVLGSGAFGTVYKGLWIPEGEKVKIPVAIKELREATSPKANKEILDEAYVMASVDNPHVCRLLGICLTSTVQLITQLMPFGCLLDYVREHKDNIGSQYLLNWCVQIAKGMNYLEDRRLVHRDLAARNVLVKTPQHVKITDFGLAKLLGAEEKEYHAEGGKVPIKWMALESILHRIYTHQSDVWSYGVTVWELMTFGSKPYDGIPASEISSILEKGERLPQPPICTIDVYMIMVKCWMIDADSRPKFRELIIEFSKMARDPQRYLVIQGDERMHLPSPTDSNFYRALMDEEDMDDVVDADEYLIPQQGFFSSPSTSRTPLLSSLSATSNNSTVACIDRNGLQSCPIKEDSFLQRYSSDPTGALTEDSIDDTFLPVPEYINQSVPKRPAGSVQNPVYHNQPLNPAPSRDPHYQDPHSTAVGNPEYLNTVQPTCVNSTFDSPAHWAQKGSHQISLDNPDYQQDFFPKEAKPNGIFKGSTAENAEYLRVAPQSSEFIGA
T4 sequence (P00533 with tags, fused parts or gaps INS770SVD): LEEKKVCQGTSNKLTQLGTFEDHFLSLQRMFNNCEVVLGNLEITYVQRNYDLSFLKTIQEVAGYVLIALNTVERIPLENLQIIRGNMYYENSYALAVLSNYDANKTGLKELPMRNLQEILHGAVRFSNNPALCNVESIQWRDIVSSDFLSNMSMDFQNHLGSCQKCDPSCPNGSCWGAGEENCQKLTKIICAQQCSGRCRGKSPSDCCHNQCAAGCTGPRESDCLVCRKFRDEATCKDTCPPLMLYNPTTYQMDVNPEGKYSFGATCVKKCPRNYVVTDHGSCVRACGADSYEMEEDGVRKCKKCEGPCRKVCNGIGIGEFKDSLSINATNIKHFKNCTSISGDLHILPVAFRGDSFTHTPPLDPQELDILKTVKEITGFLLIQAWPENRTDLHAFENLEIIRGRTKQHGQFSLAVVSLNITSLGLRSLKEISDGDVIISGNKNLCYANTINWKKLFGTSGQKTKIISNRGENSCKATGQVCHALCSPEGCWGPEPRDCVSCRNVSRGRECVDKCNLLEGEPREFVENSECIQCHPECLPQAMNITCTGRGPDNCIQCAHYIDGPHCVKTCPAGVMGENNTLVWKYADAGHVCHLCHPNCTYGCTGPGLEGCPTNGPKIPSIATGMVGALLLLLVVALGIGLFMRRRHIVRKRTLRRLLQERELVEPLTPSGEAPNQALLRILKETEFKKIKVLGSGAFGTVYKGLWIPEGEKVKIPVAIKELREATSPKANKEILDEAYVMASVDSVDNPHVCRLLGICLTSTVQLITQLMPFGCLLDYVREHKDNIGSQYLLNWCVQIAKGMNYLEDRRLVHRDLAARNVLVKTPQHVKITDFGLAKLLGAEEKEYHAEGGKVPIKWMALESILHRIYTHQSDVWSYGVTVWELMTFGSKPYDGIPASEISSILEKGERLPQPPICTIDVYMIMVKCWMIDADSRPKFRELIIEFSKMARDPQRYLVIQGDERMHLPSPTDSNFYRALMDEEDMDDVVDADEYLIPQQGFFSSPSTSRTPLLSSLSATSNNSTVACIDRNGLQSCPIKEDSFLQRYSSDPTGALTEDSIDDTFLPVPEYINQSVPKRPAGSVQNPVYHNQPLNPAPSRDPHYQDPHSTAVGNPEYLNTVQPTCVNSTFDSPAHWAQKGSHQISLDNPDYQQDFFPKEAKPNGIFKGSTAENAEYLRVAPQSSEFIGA
T5 sequence (P00533 with tags, fused parts or gaps INS763FQEA): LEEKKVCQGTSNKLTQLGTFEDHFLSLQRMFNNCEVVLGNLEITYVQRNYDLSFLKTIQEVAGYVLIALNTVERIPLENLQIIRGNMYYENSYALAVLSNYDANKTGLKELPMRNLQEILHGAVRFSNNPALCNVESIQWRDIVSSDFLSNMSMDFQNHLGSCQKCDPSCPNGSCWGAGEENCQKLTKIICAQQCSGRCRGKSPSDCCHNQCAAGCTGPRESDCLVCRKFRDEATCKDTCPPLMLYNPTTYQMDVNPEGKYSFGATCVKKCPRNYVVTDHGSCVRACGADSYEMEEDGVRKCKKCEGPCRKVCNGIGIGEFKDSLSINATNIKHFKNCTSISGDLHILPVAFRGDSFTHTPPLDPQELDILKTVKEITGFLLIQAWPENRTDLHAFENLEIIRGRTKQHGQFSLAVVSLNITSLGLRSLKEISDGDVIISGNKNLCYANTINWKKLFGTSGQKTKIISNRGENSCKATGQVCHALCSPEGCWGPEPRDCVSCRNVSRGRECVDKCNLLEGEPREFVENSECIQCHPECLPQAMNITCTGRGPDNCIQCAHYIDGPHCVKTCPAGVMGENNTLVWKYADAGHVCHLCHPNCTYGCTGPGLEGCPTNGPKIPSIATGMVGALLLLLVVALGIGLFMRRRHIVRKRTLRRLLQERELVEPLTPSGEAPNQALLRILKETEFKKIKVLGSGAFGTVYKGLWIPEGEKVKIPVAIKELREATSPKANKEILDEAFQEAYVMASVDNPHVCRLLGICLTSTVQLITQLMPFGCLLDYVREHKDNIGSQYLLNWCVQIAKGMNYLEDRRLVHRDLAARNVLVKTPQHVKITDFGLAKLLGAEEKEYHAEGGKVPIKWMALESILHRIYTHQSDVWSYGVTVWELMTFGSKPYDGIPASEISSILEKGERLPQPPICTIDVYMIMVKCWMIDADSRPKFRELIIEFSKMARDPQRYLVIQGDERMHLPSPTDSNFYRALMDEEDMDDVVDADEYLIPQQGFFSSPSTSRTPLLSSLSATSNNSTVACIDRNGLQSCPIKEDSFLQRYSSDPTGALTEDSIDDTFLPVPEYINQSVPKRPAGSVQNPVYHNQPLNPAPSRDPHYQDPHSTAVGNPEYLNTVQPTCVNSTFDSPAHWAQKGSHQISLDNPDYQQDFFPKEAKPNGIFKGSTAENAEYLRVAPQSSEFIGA
T2 sequence (P00533 with tags, fused parts or gaps INS770NPG): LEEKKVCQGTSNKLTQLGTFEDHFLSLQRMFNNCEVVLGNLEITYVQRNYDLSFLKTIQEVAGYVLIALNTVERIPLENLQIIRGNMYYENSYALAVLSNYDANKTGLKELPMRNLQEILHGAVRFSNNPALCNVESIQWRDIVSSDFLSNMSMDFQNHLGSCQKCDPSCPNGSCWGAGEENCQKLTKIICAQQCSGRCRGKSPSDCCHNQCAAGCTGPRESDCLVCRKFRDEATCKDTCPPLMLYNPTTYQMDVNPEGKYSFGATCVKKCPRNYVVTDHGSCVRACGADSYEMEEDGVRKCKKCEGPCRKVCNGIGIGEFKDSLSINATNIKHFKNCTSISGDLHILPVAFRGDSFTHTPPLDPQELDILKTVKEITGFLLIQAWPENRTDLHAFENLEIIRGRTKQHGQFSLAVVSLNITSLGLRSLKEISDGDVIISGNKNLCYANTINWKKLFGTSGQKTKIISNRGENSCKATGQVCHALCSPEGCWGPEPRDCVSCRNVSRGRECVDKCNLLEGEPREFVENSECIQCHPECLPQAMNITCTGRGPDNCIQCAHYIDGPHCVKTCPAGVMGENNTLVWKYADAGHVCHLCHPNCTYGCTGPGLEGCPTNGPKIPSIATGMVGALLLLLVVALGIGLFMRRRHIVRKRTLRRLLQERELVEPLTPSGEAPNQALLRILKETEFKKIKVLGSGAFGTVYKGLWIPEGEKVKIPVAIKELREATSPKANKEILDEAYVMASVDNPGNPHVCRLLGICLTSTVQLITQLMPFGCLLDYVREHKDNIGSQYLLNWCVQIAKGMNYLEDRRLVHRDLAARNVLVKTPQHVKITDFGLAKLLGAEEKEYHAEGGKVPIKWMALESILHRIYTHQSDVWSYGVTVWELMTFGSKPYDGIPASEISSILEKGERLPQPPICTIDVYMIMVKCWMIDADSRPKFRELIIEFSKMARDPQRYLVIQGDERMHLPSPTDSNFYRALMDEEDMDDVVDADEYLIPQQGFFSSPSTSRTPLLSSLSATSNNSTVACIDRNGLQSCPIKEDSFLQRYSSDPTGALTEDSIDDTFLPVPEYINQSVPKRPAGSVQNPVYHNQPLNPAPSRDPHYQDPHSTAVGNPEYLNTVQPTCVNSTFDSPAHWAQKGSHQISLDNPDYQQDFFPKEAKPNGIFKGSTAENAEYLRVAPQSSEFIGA

Take `CNc1nccc(-c2[nH]c3c(c2Nc2cccc(F)c2OC)C(=O)NCC3)n1` [Compound 691, 3-[(3-fluoro-2-methoxyphenyl)amino]-2-[2-(methylamino)pyrimidin-4-yl]-1H,5H,6H,7H-pyrrolo[3,2-c]pyridin-4-one]: the IC50 at EGFR WT (Ba/F3 cells) was 100 to 1000 nM; in experiment [1], 100 to 1000 nM; in experiment [2], 100 to 1000 nM; in experiment [3], 100 to 1000 nM; in experiment [4] it was 100 to 1000 nM; in experiment [5], under 100 nM. For the same compound, the IC50 in experiment [6] is under 100 nM.

As for `Cc1c(F)cccc1Nc1c(-c2ccnc(N)c2F)[nH]c2c1C(=O)NCC2` [Compound 692, 2-(2-amino-3-fluoropyridin-4-yl)-3-[(3-fluoro-2-methylphenyl)amino]-1H,5H,6H,7H-pyrrolo[3,2-c]pyridin-4-one], the IC50 was 100 to 1000 nM at EGFR WT (Ba/F3 cells); 100 to 1000 nM in experiment [1]; 100 to 1000 nM in experiment [2]; 100 to 1000 nM in experiment [3]; 100 to 1000 nM in experiment [4]; under 100 nM in experiment [5]. In addition, in experiment [6], the IC50 lay in the range of 100 to 1000 nM.

On to `CNc1nccc(-c2[nH]c3c(c2Nc2cccc(Cl)c2OC)C(=O)NCC3)n1` [compound 108], for which the IC50 at EGFR WT (Ba/F3 cells) was 100 to 1000 nM; in experiment [1] it was under 100 nM; in experiment [2], under 100 nM; in experiment [3] it was under 100 nM; in experiment [4] it was 100 to 1000 nM; in experiment [5] it was under 100 nM. For the same compound, the IC50 in experiment [6] was under 100 nM.

As for `COc1c(Cl)cccc1Nc1c(-c2ccnc(Nc3cnn(C)c3)n2)[nH]c2c1C(=O)NCC2` [compound 109], the IC50 (at EGFR WT (Ba/F3 cells); in experiment [1]; in experiment [2]; in experiment [3]; in experiment [4]; in experiment [5]) was under 100 nM throughout. Also, the 50% inhibitory concentration (IC50) in experiment [6] was under 100 nM.

As for `CCc1c(F)cccc1Nc1c(-c2ccnc(N)n2)[nH]c2c1C(=O)NCC2` [compound 195], the IC50 is 100 to 1000 nM at EGFR WT (Ba/F3 cells); 100 to 1000 nM in experiment [1]; 100 to 1000 nM in experiment [2]; 100 to 1000 nM in experiment [3]; 100 to 1000 nM in experiment [4]; under 100 nM in experiment [5]. Besides, in experiment [6], the IC50 is under 100 nM.

For the compound `Nc1nccc(-c2[nH]c3c(c2Nc2cccc(F)c2F)C(=O)NCC3)n1` [compound 202], the IC50 on EGFR WT (Ba/F3 cells) is 100 to 1000 nM; in experiment [1] it was 100 to 1000 nM; in experiment [2], 100 to 1000 nM; in experiment [3], 100 to 1000 nM; in experiment [4], 100 to 1000 nM; in experiment [5] it was under 100 nM. Also, the IC50 in experiment [6] is under 100 nM.

For the compound `COc1c(Cl)cccc1Nc1c(-c2ccnc(NC(C)=O)n2)[nH]c2c1C(=O)NCC2` [compound 220], the IC50 is over 1000 nM at EGFR WT (Ba/F3 cells); 100 to 1000 nM in experiment [1]; 100 to 1000 nM in experiment [2]; 100 to 1000 nM in experiment [3]; 100 to 1000 nM in experiment [4]; under 100 nM in experiment [5]. The IC50 in experiment [6] lay within 100 to 1000 nM.

In the case of `COc1c(Cl)cccc1Nc1c(-c2ccnc(NC(=O)C3CC3)n2)[nH]c2c1C(=O)NCC2` [compound 221], the IC50 was over 1000 nM on EGFR WT (Ba/F3 cells); 100 to 1000 nM in experiment [1]; 100 to 1000 nM in experiment [2]; 100 to 1000 nM in experiment [3]; 100 to 1000 nM in experiment [4]; under 100 nM in experiment [5]. Also, in experiment [6], the IC50 lay within 100 to 1000 nM.

Regarding `COc1c(Cl)cccc1Nc1c(-c2ccnc(N)c2)[nH]c2c1C(=O)NCC2` [compound 285], the IC50 is over 1000 nM on EGFR WT (Ba/F3 cells); 100 to 1000 nM in experiment [1]; 100 to 1000 nM in experiment [2]; 100 to 1000 nM in experiment [3]; 100 to 1000 nM in experiment [4]; under 100 nM in experiment [5]. Besides, in experiment [6], the half-inhibitory concentration (IC50) is under 100 nM.

For the compound `COc1nccc(-c2[nH]c3c(c2Nc2cccc(Cl)c2OC)C(=O)NCC3)n1` [compound 286], the IC50 on EGFR WT (Ba/F3 cells) was over 1000 nM; in experiment [1], over 1000 nM; in experiment [2], over 1000 nM; in experiment [3], over 1000 nM; in experiment [4], over 1000 nM; in experiment [5] it was 100 to 1000 nM. Further, in experiment [6], the IC50 is over 1000 nM.

Turning to `COc1c(Cl)cccc1Nc1c(-c2ccnc3c2OCC(=O)N3)[nH]c2c1C(=O)NCC2` [compound 308], the IC50 on EGFR WT (Ba/F3 cells) was over 1000 nM; in experiment [1], 100 to 1000 nM; in experiment [2], 100 to 1000 nM; in experiment [3], 100 to 1000 nM; in experiment [4] it was 100 to 1000 nM; in experiment [5] it was under 100 nM. Moreover, in experiment [6], the half-maximal inhibitory concentration (IC50) was under 100 nM.

With `COCCOc1ccc2nccc(-c3[nH]c4c(c3Nc3cccc(Cl)c3OC)C(=O)NCC4)c2n1` [compound 678, 3-[(3-chloro-2-methoxyphenyl)amino]-2-[6-(2-methoxyethoxy)-1,5-naphthyridin-4-yl]-1H,5H,6H,7H-pyrrolo[3,2-c]pyridin-4-one], the IC50 (on EGFR WT (Ba/F3 cells); in experiment [1]; in experiment [2]; in experiment [3]; in experiment [4]; in experiment [5]) was under 100 nM each time. Also, in experiment [6], the IC50 is under 100 nM.

Usually IC50 stands for the concentration that inhibits the measured activity by half.
